From patent publication US12552800B2, “Compounds for diagnosis” (AC IMMUNE SA, priority 2020, dated 2026)

Target: T1, PD brain-derived a-syn aggregates (Homo sapiens, UniProt P37840)
T1 construct: from tissue; host or cells: human PD donor brain, sarkosyl-insoluble 100,000 x g pellet
Test: Micro-radiobinding competition assay against Example-1 [^3H-1] (Table 8)
Assay type: binding
Details: for Competition at 100 nM (%): 100 nM non-radiolabelled example compound vs Example-1 [^3H-1] ligand; for Competition at 100 nM (%) / Competition at 1 μM (%): human PD brain-derived a-syn aggregates; for Competition at 1 μM (%): 1 μM non-radiolabelled example compound vs Example-1 [^3H-1] ligand; for Ki: mean of Ki values in independent experiments using PD brain-derived homogenates from two different donors
Description: PD brain-derived a-syn aggregates were spotted onto microarray slides. The slides were incubated with the Example-1 [^3H-1] at 6 nM or 20 nM and the example compounds (non-radiolabelled) at 1 μM and 100 nM. In some cases, the non-radiolabelled example compounds were further assessed for a range of different concentrations, varying from 0.05 nM to 2 μM. After incubation, slides were washed and scanned by a real-time autoradiography system (BeaQuant, ai4R). Quantification of the signal was performed by using the Beamage image analysis software (ai4R). […] All measurements were performed with at least two technical replicates. For compounds tested in more than one experiment, the mean of the replicates or K; values in independent experiments is reported.
Results: Example compounds were assessed for their potency to compete with the binding of Example-1 [^3H-1] ligand to PD patient brain-derived a-syn aggregates. Results of the micro-radiobinding competition assay for the example compounds tested are shown in Table 8 as: % competition at 1 μM and 100 nM.

SMILES	Competition at 100 nM (%)	Competition at 1 μM (%)	Ki
O=C1c2cn(-c3ccc(N4CCOCC4)nc3)nc2CN1c1cncc(F)n1 [Example 141]	51%	66%	
O=C1c2cn(-c3ccc(N4CC[C@@H](F)C4)nc3)nc2CN1c1ccccc1 [Example 51]	80%	100%	
O=C1c2cn(-c3ccc(N4CCCC4)nc3)nc2CN1c1cccc(F)n1 [Example 140]	67%		
Cc1ncccc1N1Cc2nn(-c3ccc(N4CC[C@H](F)C4)nc3)cc2C1=O [Example 13]	4%	31%	
O=C1c2cn(-c3ccc(N4CC[C@H](F)C4)nc3)nc2CN1c1cncc(F)c1 [Example 92]	32%	73%	
O=C1c2cn(-c3ccc(N4CC[C@H](F)C4)nc3)nc2CN1c1ccc(O)cn1 [Example 165]	88%	107%	
O=C1c2cn(-c3ccc(N4CC[C@@H](F)C4)nc3)nc2CN1c1ccc(O)cc1 [Example 180]	77%	96%	
COc1ccc(N2Cc3nn(-c4ccc(N5CC[C@H](F)C5)nc4)cc3C2=O)cc1 [Example 30]	80%	95%	
COc1ccc(-n2cc3c(n2)CN(c2cncc(F)n2)C3=O)cn1 [Example 147]	72%	86%	
CN(C)c1ccc(-n2cc3c(n2)CN(c2cccnc2)C3=O)cn1 [Example 135]	67%	96%	
O=C1c2cn(-c3ccc(C4CCCC4)nc3)nc2CN1c1cncc(F)n1 [Example 161]	42%	65%	
O=C1c2cn(-c3ccc(N4CC[C@@H](F)C4)nc3)nc2CN1c1ccc(F)cc1 [Example 63]	79%	96%	
N#Cc1cc(N2Cc3nn(-c4ccc(N5CC[C@@H](F)C5)nc4)cc3C2=O)ccn1 [Example 114]	92%	99%	
COc1ccc(-n2cc3c(n2)CN(c2cccc(F)n2)C3=O)cn1 [Example 159]	46%	67%	
Nc1cc(N2Cc3nn(-c4ccc(N5CCCC5)nc4)cc3C2=O)ccc1F [Example 44]	90%		
COc1ccc(N2Cc3nn(-c4ccc(N5CC[C@H](F)C5)nc4)cc3C2=O)cn1 [Example 9]	69%	90%	
Cc1ccccc1N1Cc2nn(-c3ccc(N4CC[C@H](F)C4)nc3)cc2C1=O [Example 32]	16%	25%	
O=C1c2cn(-c3ccc(N4CCOCC4)nc3)nc2CN1c1nccnc1F [Example 45]	78%	92%	52 nM
O=C1c2cn(-c3ccc(N4CCCC4)nc3)nc2CN1c1cnccc1F [Example 47]	39%		
COc1cc(N2Cc3nn(-c4ccc(N5CC[C@@H](F)C5)nc4)cc3C2=O)ccn1 [Example 107]	92%	100%	

SMILES	Competition at 100 nM (%)	Competition at 1 μM (%)	Ki
Cn1cc(N2Cc3nn(-c4ccc(N5CCC[C@H](F)C5)nc4)cc3C2=O)cn1 [Example 121]	40%	84%	
O=C1c2cn(-c3ccc(N4CC[C@@H](F)C4)nc3)nc2CN1c1ncccn1 [Example 15]	61%	91%	
Cc1ccc(N2Cc3nn(-c4ccc(N5CC[C@H](F)C5)nc4)cc3C2=O)nc1 [Example 112]	85%	105%	
Cc1cc(N2Cc3nn(-c4ccc(N5CC[C@H](F)C5)nc4)cc3C2=O)ccn1 [Example 104]	86%	98%	
O=C1c2cn(-c3ccc(N4CC[C@@H](F)C4)nc3)nc2CN1c1ccnc(O)c1 [Example 171]	48%		
Cc1ccc(N2Cc3nn(-c4ccc(N5CC[C@H](F)C5)nc4)cc3C2=O)cc1 [Example 35]	73%		
O=C1c2cn(-c3ccc(N4CC[C@H](F)C4)nc3)nc2CN1c1ccc(O)cc1 [Example 179]	80%	95%	
O=C1c2cn(-c3ccc(N4CC[C@@H](F)C4)cc3)nc2CN1c1cccnc1 [Example 85]	72%	99%	
Cl.O=C1c2cn(-c3ccc(N4CCCC4)nc3)nc2CN1c1ccc(F)nc1 [Example 49]	48%	84%	
N#Cc1ccnc(N2Cc3nn(-c4ccc(N5CC[C@H](F)C5)nc4)cc3C2=O)c1 [Example 88]	75%		
N#Cc1cccc(N2Cc3nn(-c4ccc(N5CC[C@@H](F)C5)nc4)cc3C2=O)c1 [Example 67]	71%		
N#Cc1cccc(N2Cc3nn(-c4ccc(N5CC[C@@H](F)C5)nc4)cc3C2=O)n1 [Example 79]	74%		
O=C1c2cn(-c3ccc(N4CC[C@H](F)C4)nc3)nc2CN1c1ccnc(O)c1 [Example 172]	44%	85%	
N#Cc1ccc(N2Cc3nn(-c4ccc(N5CC[C@H](F)C5)nc4)cc3C2=O)nc1 [Example 31]	86%		
O=C1c2cn(-c3ccc(N4CC[C@H](F)C4)cc3)nc2CN1c1cccnc1 [Example 87]	67%	92%	15 nM
O=C1c2cn(-c3ccc(N4CC[C@@H](F)C4)nc3)nc2CN1c1cccnn1 [Example 152]	39%	86%	
O=C1c2cn(-c3ccc(N4CCCC4)nc3)nc2CN1c1cc(F)ccn1 [Example 100]	78%		
Cn1cc(-n2cc3c(n2)CN(c2cccc(F)n2)C3=O)cn1 [Example 150]	37%	46%	
N#Cc1ccc(-n2cc3c(n2)CN(c2cncc(F)n2)C3=O)cn1 [Example 155]	51%	94%	
Cc1cccc(N2Cc3nn(-c4ccc(N5CC[C@H](F)C5)nc4)cc3C2=O)c1 [Example 38]	70%		

SMILES	Competition at 100 nM (%)	Competition at 1 μM (%)	Ki
O=C1c2cn(-c3ccc(N4CC[C@@H](F)C4)nc3)nc2CN1c1cccc(O)c1 [Example 177]	76%	100%	
Cn1cc(N2Cc3nn(-c4ccc(N5CC(F)C5)nc4)cc3C2=O)cn1 [Example 124]	61%	98%	
Cn1cc(N2Cc3nn(-c4ccc(N5CCC[C@@H](F)C5)nc4)cc3C2=O)cn1 [Example 120]	45%	83%	
Cc1ccc(N2Cc3nn(-c4ccc(N5CC[C@H](F)C5)nc4)cc3C2=O)cn1 [Example 11]	50%	98%	
O=C1c2cn(-c3ccc(N4CC[C@@H](F)C4)nc3)nc2CN1c1ccc(O)cn1 [Example 162]	92%	110%	
N#Cc1ccc(N2Cc3nn(-c4ccc(N5CC[C@H](F)C5)nc4)cc3C2=O)cc1 [Example 59]	86%		
O=C1c2cn(-c3ccc(N4CC[C@H](F)C4)nc3)nc2CN1c1nccs1 [Example 136]	75%		
N#Cc1cc(N2Cc3nn(-c4ccc(N5CCCC5)nc4)cc3C2=O)ccc1F [Example 46]	61%		
Cn1ccc(-n2cc3c(n2)CN(c2cccc(F)n2)C3=O)n1 [Example 145]	46%	76%	
O=C1c2cn(-c3ccc(N4CC[C@H](F)C4)nc3)nc2CN1c1ccncc1O [Example 173]	12%	54%	
O=C1c2cn(-c3ccc(N4CC[C@H](F)C4)nc3)nc2CN1c1cnsc1 [Example 132]	63%	93%	
O=C1c2cn(-c3ccc(N4CCCC4)nc3)nc2CN1c1ncccc1F [Example 103]	41%	70%	
COc1cccc(N2Cc3nn(-c4ccc(N5CC[C@H](F)C5)nc4)cc3C2=O)c1 [Example 36]	74%	91%	
O=C1c2cn(-c3ccc(N4CCC[C@H](F)C4)nc3)nc2CN1c1cccnc1 [Example 43]	47%	88%	
CC(C)Oc1ccc(-n2cc3c(n2)CN(c2cncc(F)n2)C3=O)cn1 [Example 158]	19%	54%	
Cn1ccc(N2Cc3nn(-c4ccc(N5CC[C@H](F)C5)nc4)cc3C2=O)n1 [Example 118]	61%	94%	
O=C1c2cn(-c3ccc(N4CC[C@H](F)C4)nc3)nc2CN1c1cccnc1O [Example 168]	30%	36%	
N#Cc1ccc(N2Cc3nn(-c4ccc(N5CC[C@@H](F)C5)nc4)cc3C2=O)nc1 [Example 33]	75%		
COc1ccc(N2Cc3nn(-c4ccc(N5CC[C@H](F)C5)nc4)cc3C2=O)nc1 [Example 28]	89%	99%	
